{
  "source": "patent US20040197335A1",
  "about": "“Non-myeloablative tolerogenic treatment with tyrphostins” (priority 2003, published 2004)",
  "key": {"[1]": {"tested_on": "donor A anti-donor B-primed human PBMC stimulated with PHA", "assay": "Mitogenic response (PHA) of alloantigen-primed PBMC", "assay_type": "cell-based", "settings": "then removed, priming without tyrphostin = 100%", "experimental": "(§1) PBMC from donor A (10×10^6) were stimulated with equal number of irradiated (6000 cGy) donor B PBMC, with and without tyrphostins, in a total volume of 20 ml culture medium supplemented with 10% heat inactivated human AB^+ serum (mixed lymphocyte culture, MLC). Cultures were placed vertically in 25 cm tissue culture flasks in a 5% CO2, humidified incubator at 37° C. After 10 days, cells were washed twice to remove the tyrphostin, and tested for their ability to respond in the MLR and the primary mitogenic response assay described hereinabove.\nCultures were incubated for 48 hours in a total volume of 0.2 ml culture medium supplemented with 10% heat-inactivated human AB^+ serum at 37° C. in a 5% CO2 humidified incubator, pulsed for 16-18 hours with 1 μCi [^3H]TdR/well, and then harvested.\n(§2) Harvesting and radioactivity determination: Harvesting was carried out by a multiple-sample cell harvester and radioactivity, expressed in counts per minutes (cpm), was determined in a liquid scintillation β-counter.\n(§3) […] After 10 days the tyrphostin was removed and the primed cells were tested for their ability to respond in a secondary MLR assay against the priming (donor B) alloantigens, in a primary MLR assay against third party unrelated alloantigens (donor C), and to non-specific stimulation in a mitogenic assay. […] Percentage of response was calculated according to the formula described above."}, "[2]": {"tested_on": "Human PBMC incubated with MHC-mismatched PBMC", "assay": "One-way mixed lymphocyte reaction (primary MLR), [3H]TdR uptake", "assay_type": "cell-based", "settings": "for % response (alloreactive relative response, cpm with/without tyrphostin x100): FIG. 2, response without tyrphostin = 100%; for cpm: no tyrphostin 10,734 cpm", "experimental": "Cell sources: Human peripheral blood mononuclear cells (PBMC) were obtained from healthy human donors after separation on Ficoll-Paque density gradient essentially as described in Boyum, A. Scand. J Lab. Invest. […] Reagents:\nOne-way mixed lymphocyte reaction (MLR assay): Responding cells derived from donor A (5×10^4) were cultured in round-bottom microwell plates with an equal number (5×10^4) of irradiated (6000 cGy) donor B PBMC with and without tyrphostins. […] During the last 18 hours of incubation, cultures were pulsed with 2 μCi of [^3H] TdR.\nas §2\nHuman PBMC were incubated either with autologous or with MHC-mismatched PBMC in a one-way MLR assay, with and without various concentrations of tyrphostins, as is described hereinabove.\nIn this case, the alloreactive response without the tyrphostins was considered as 100% response. Percentage of response was calculated according to the following formula: b/a×100; where a=cpm in cultures without tyrphostin, b=cpm in cultures with tyrphostin."}, "[3]": {"tested_on": "donor A anti-donor B-primed human PBMC vs donor B PBMC", "assay": "Secondary MLR of alloantigen-primed PBMC against priming donor B", "assay_type": "cell-based", "settings": "then removed, priming without tyrphostin = 100%", "experimental": "as §1\n(§4) The alloreactivity of donor A anti-donor B-primed cells (5×10^4) was tested in a 6-day one-way primary MLR assay against third party unrelated donor C PBMC (10^5), or against donor A cells (background control). Cultures were placed in round-bottom microwell plates. On day 5, cultures were pulsed with 2 μCi [^3H] TdR/well for 16-18 hours and then harvested. […] After 48 hours at 37° C. in a 5% CO2 humidified incubator, cultures were pulsed with 2 μCi [^3H] TdR for another 16-18 hours and then harvested.\nas §2, §3"}, "[4]": {"tested_on": "donor A anti-donor B-primed human PBMC vs third party unrelated donor C PBMC", "assay": "Primary MLR of alloantigen-primed PBMC against third party unrelated donor C", "assay_type": "cell-based", "settings": "then removed, priming without tyrphostin = 100%", "experimental": "as §1, §4, §2, §3"}, "[5]": {"tested_on": "Mice with donor skin graft", "assay": "Skin grafting after tolerogenic treatment (TLI, donor bone marrow cells, tyrphostin, cyclophosphamide)", "assay_type": "in vivo", "parameters": "Survivors after 50 days / Survivors after 50 days (%) / Survivors after 100 days / Survivors after 100 days (%): dose or concentration left out as unconfirmed"}, "[6]": {"tested_on": "Human PBMC stimulated with phytohemagglutinin (PHA)", "assay": "Primary mitogenic response assay (PHA), [3H]TdR uptake", "assay_type": "cell-based", "settings": "Table 6, tyrphostin 20 μM", "experimental": "Mitogens: Phytohemagglutinin (PHA) and concanavalin A (Con-A) were dissolved in saline and diluted to their final concentration in culture medium. Anti-CD3 (OK3 stock solution 1 μg/ml) was diluted to 0.2 μg/ml final concentration in culture medium.\nResponding PBMC cells (10^5) derived from donor A were cultured in flat-bottom microwell plates with and without tyrphostins, and with phytohemagglutinin (PHA) 1 μg/ml, or concanavalin A 18 μg/ml. […] During the last 18 hours of incubation, cultures were pulsed with 1 μCi of [^3H] TdR.\nas §2"}, "[7]": {"settings": "primed 10 days with tyrphostin 25 μM"}, "[8]": {"settings": "primed 10 days with tyrphostin 50 μM"}},
  "data": [
    {"smiles": "N#CC(=Cc1ccc(O)c(O)c1)C(=O)NCc1ccccc1", "note": "[Tyr 1, N-benzyl-2-cyano-3-(3,4-dihydroxyphenyl)-acrylamide]", "values": [
      {"measurement": "% Response to PHA", "setting": "[1]; [7]", "value": "290 ± 111^ %"},
      {"measurement": "% Response to PHA", "setting": "[1]; [8]", "value": "176 ± 50", "unit": "%"},
      {"measurement": "% response (alloreactive relative response, cpm with/without tyrphostin x100)", "setting": "[2]; primary MLR, tyrphostin 10 μM", "value": 40, "unit": "%"},
      {"measurement": "% response (alloreactive relative response, cpm with/without tyrphostin x100)", "setting": "[2]; primary MLR, tyrphostin 50 μM", "value": 4, "unit": "%"},
      {"measurement": "inhibition at 25 µM", "setting": "[2]; Homo sapiens, PBMC, 144 h, Table 2, primary MLR, tyrphostin 25 μM", "value": 77, "unit": "%"},
      {"measurement": "inhibition at 50 µM", "setting": "[2]; Homo sapiens, PBMC, 144 h, Table 2, primary MLR, tyrphostin 50 μM", "value": 89, "unit": "%"},
      {"measurement": "IC50", "setting": "[2]; Homo sapiens, PBMC, Table 5, some values marked (mean), read-out: IC 50% (inhibition of Primary MLR)", "value": 45, "unit": "µM"},
      {"measurement": "cpm", "setting": "[2]; Table 2, primary MLR, tyrphostin 25 μM", "value": "2,420 cpm"},
      {"measurement": "cpm", "setting": "[2]; Table 2, primary MLR, tyrphostin 50 μM", "value": "1,132 cpm"},
      {"measurement": "% Response to primary stimulator", "setting": "[3]; [7]", "value": "22 ± 14", "unit": "%"},
      {"measurement": "% Response to primary stimulator", "setting": "[3]; [8]", "value": "19 ± 10", "unit": "%"},
      {"measurement": "% Response to unrelated stimulator", "setting": "[4]; [7]", "value": "99 ± 29^ %"},
      {"measurement": "% Response to unrelated stimulator", "setting": "[4]; [8]", "value": "175 ± 77", "unit": "%"},
      {"measurement": "Survivors after 50 days (%)", "setting": "[5]; mice, s.c.", "value": "(20%)"},
      {"measurement": "Survivors after 100 days (%)", "setting": "[5]; mice, s.c.", "value": "(20%)"},
      {"measurement": "Survivors after 50 days", "setting": "[5]; mice, s.c., survivors/total", "value": "1/5"},
      {"measurement": "Survivors after 100 days", "setting": "[5]; mice, s.c., survivors/total", "value": "1/5"},
      {"measurement": "inhibition at 20 µM", "setting": "[6]; Homo sapiens, PBMC, 96 h, mitogenic response", "value": 60, "unit": "%"},
      {"measurement": "cpm ± SD", "setting": "[6]; PHA without tyrphostin 14,959±644, medium 155±37", "value": "6,023 ± 876 cpm"}
    ]},
    {"smiles": "O=P1(N(CCCl)CCCl)NCCCO1", "note": "(centres unmarked) [cyclophosphamide, reference compound]", "values": [
      {"measurement": "effectiveness of sub-optimal dose by itself", "setting": "[5]; mouse, in vivo, 100 mg/kg", "value": "ineffective"}
    ]}
  ]
}
